Laboratory results reported in US20170239237A1, “PYRROLOQUINOLINE DERIVATIVES AS 5-HT6 ANTAGONISTS, PREPARATION METHOD AND USE THEREOF” (Uniwersytet Jagiellonski, priority 2013, published 2017).

Tests used:
dopamine D2L receptor = dopamine D2L receptor (Homo sapiens, UniProt P14416); test: Radioligand binding, D2 ([3H]-raclopride displacement)
D3 receptors = D3 receptors (Homo sapiens, UniProt P35462); test: biochemical; conditions: read-out: % inhibition of control binding at 10^−6M, D3
5-HT7 receptor = 5-HT7 receptor (Homo sapiens, UniProt P34969); test: Radioligand binding, 5-HT7 ([3H]-5-CT displacement)
Sequence of 5-HT7 receptor (P34969 1-432 limits assumed): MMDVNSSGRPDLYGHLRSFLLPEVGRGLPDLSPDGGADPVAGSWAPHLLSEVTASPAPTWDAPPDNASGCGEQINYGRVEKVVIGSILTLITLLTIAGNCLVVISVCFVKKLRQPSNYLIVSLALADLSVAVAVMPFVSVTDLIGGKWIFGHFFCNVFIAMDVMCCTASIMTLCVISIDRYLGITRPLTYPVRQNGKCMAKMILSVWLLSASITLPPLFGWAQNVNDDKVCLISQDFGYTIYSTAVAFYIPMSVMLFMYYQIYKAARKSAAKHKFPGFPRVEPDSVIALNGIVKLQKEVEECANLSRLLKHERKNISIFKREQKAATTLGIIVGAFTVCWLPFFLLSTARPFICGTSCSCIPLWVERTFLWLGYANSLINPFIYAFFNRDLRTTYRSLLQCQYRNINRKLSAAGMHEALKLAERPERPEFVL

Wistar rats [1] = test: Conflict drinking test (Vogel test) in Wistar rats; format: in vivo, rat; conditions: IP, 60 minutes before the test; Wistar rats
Experimental: (§1) For intraperitoneal (i.p.) administration: to the desired quantity of the solid compound in a glass beaker, required volume of sterile water for injection was added and swirled with glass bar until complete dissolution of the compound.
(§2) Animals. Male Wistar rats weighing 220-250 g were used in the test. […] All animals were kept in an environmentally controlled rooms (ambient temperature 22±2° C; relative humidity 50-60%; 12:12 light:dark cycle, lights on at 8:00). They were allowed to acclimatize with the environment for one week before commencement of the experiments. Standard laboratory food (Ssniff M-Z) and filtered water were freely available. The experiments were conducted in the light phase between 09.00 and 14.00 hours. 1 h before the start of the experiment, rats were transferred to the experimental room for acclimation.
Apparatus and procedure. […] Experimental chambers were connected to PC software by control chassis and electric shocks' generator. On the first day of the experiment, the rats were adapted to the test chambers for 10 min. […] Afterwards, they were allowed a 30-min free-drinking session in their home cages. […] Recording data started immediately after the first lick and every 20 licks rats were punished with an electric shock (0.5 mA, lasting 1 s). The impulses were released via the spout of the drinking bottles. If a rat was drinking when an impulse was released, it received a shock. The number of licks and the number of shocks received during a 5-min experimental session was recorded automatically.
(§3) Experimental design. The compounds were administered IP, 60 minutes before the test.
(§4) Drugs. The experimental compounds were dissolved in the distilled water. All compounds were administrated in the volume of 2 ml/kg.

5-HT2C receptors = target: T1, 5-HT2C receptors (Homo sapiens, UniProt P28335); test: biochemical; conditions: read-out: % inhibition of control binding at 10^−6M, 5-HT2C
T1 sequence (P28335 33-458): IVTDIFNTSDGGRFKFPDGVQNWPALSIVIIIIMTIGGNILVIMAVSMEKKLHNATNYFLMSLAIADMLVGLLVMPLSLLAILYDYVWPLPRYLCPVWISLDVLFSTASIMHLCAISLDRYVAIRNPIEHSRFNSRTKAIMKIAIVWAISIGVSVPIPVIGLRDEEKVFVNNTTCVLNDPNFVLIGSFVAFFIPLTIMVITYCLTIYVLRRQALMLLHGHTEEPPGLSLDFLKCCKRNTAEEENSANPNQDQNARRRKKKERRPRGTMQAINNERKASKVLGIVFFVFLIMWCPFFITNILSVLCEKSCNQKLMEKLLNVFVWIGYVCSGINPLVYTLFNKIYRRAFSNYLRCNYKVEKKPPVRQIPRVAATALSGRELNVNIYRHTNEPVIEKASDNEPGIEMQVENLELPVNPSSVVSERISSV

H1 receptors = H1 receptors (Homo sapiens, UniProt P35367); test: biochemical; conditions: read-out: % inhibition of control binding at 10^−6M, H1
Sequence of H1 receptors (P35367 whole entry): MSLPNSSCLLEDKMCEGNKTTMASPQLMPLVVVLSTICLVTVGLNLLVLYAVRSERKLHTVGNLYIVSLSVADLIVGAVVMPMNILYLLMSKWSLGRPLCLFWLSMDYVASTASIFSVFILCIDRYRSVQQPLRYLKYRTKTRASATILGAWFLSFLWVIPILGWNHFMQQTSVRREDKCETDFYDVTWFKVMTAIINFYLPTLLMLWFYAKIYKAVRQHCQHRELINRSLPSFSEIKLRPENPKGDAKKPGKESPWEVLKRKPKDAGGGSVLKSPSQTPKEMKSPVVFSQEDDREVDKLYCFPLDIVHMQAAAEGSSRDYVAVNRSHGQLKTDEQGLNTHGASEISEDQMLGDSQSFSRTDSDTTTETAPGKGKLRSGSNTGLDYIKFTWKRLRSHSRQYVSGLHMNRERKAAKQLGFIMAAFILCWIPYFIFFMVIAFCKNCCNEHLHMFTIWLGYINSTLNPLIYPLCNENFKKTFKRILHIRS

M1 receptors = target: T2, M1 receptors (Homo sapiens, UniProt P11229); test: biochemical; conditions: read-out: % inhibition of control binding at 10^−6M, M1
T2 sequence (P11229 1-460): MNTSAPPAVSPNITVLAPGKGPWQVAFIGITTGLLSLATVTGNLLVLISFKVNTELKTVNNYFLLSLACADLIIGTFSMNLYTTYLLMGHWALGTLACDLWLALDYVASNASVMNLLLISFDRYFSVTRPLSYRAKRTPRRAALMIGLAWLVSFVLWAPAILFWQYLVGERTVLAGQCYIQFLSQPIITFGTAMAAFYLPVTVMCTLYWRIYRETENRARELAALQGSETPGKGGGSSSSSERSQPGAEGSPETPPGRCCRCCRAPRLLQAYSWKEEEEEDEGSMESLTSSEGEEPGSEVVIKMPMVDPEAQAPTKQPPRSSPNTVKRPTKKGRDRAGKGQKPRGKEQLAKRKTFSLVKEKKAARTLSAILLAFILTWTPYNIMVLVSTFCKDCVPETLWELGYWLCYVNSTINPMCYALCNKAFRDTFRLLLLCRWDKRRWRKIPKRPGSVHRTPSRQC

5-HT1A receptor = target: T3, 5-HT1A receptor (Homo sapiens, UniProt P08908); test: Radioligand binding, 5-HT1A ([3H]-8-OH-DPAT displacement)
T3 sequence (P08908 1-422): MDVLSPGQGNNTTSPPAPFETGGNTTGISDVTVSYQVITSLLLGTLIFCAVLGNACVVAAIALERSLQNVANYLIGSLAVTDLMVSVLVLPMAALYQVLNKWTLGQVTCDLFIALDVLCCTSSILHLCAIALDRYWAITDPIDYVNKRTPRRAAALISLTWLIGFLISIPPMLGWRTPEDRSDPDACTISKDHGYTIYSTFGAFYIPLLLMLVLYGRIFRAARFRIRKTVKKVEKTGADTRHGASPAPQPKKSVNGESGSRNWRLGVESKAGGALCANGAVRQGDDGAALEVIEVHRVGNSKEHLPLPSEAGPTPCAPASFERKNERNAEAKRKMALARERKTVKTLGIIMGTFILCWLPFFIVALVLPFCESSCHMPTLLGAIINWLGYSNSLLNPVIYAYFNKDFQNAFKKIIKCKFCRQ

Wistar rats [2] = test: Forced swim test (FST) in Wistar rats; format: in vivo, rat; conditions: IP, 60 minutes before the test; Wistar rats
Experimental: as §1, §2
Apparatus and procedure. […] On the first day of experiment, the animals were gently individually placed in Plexiglas cylinders (40 cm high, 18 cm in diameter) containing 15 cm of water maintained at 25° C. for 15 min. Upon removal from water, the rats were placed in a Plexiglas box for 30 min under a 60-W bulb to dry off. On the following day, the rats were placed again in the cylinder and the total duration of immobility was recorded throughout the 5-min test period. Fresh water was used for each animal.
as §3, §4

Sequence of dopamine D2L receptor (P14416 whole entry): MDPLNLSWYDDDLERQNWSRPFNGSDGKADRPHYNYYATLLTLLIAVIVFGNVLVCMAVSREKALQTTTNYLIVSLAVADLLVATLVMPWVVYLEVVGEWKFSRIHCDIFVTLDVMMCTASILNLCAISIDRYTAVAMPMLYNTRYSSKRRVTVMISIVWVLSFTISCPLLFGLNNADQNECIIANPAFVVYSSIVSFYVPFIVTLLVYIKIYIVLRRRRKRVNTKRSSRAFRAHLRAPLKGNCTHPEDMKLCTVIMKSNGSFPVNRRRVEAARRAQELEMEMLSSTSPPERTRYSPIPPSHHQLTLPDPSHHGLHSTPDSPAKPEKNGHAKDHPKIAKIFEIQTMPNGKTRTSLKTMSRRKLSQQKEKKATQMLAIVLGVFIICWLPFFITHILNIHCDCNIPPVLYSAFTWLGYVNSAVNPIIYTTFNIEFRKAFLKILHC
Sequence of D3 receptors (P35462 whole entry): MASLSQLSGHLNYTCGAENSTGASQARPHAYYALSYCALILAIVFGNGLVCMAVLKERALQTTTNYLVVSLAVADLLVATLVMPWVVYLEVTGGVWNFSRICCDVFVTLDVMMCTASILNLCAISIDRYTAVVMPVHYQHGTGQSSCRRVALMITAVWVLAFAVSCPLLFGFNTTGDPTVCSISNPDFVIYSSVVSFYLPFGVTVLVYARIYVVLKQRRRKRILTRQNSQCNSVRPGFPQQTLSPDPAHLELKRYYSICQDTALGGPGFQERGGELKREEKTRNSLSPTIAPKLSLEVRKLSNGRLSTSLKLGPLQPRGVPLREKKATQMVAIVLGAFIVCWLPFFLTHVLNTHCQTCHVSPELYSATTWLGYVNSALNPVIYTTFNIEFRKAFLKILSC

Ki (dopamine D2L receptor): 754 nM
inhibition at 1 µM (D3 receptors): 82%
Ki (5-HT7 receptor): 3940 nM
inhibition at 1 µM (5-HT2C receptors): 2%
inhibition at 1 µM (H1 receptors): 17%
inhibition at 1 µM (M1 receptors): -1%
Ki (5-HT1A receptor): 2680 nM
Compound: O=S(=O)(c1cccc(Cl)c1)n1ccc2c(N[C@@H]3CCNC3)nc3ccccc3c21 [Compound 7, (R)-1-((3-chlorophenyl)sulfonyl)-N-(pyrrolidin-3-yl)-1H-pyrrolo[3,2-c]quinolin-4-amine]
Minimum effective dose, conflict drinking (Vogel test) in rats (potential anxiolytic properties) (Wistar rats [1]): 10 mg/kg
Minimum effective dose, forced swim test in rats (potential antidepressant properties) (Wistar rats [2]): 3 mg/kg
